Experiments:
Assay type in all cases: functional
[1] = molecular target: T-cell surface glycoprotein CD4 (Homo sapiens) (UniProt P01730); assay: Chemotactic activity of compound measured as function of concentration of 9 uM compared to peptide T,[DA1a]peptide T and amygdalin
[2] = molecular target: T-cell surface glycoprotein CD4 (Homo sapiens) (UniProt P01730); assay: Chemotactic activity of compound measured as function of concentration of 11 uM compared to peptide T,[DA1a]peptide T and amygdalin
[3] = molecular target: T-cell surface glycoprotein CD4 (Homo sapiens) (UniProt P01730); assay: Chemotactic activity of compound measured as function of concentration of 6 uM compared to peptide T,[DA1a]peptide T and amygdalin
[4] = molecular target: T-cell surface glycoprotein CD4 (Homo sapiens) (UniProt P01730); assay: Chemotactic activity of compound measured as function of concentration of 10 uM compared to peptide T,[DA1a]peptide T and amygdalin
[5] = molecular target: T-cell surface glycoprotein CD4 (Homo sapiens) (UniProt P01730); assay: Chemotactic activity of compound measured as function of concentration of 8 uM compared to peptide T,[DA1a]peptide T and amygdalin
[6] = molecular target: T-cell surface glycoprotein CD4 (Homo sapiens) (UniProt P01730); assay: Chemotactic activity of compound measured as function of concentration of 7 uM compared to peptide T,[DA1a]peptide T and amygdalin

With OC[C@@H]1O[C@@H](OC[C@@H]2O[C@@H](OCCc3ccccc3)[C@@H](O)[C@@H](O)[C@@H]2O)[C@@H](O)[C@@H](O)[C@@H]1O the Chemotactic index [1] was 0.7.
C[C@H](N)C(=O)N[C@@H](CO)C(=O)N[C@H](C(=O)N[C@H](C(=O)N[C@H](C(=O)N[C@@H](CC(N)=O)C(=O)N[C@@H](Cc1ccc(O)cc1)C(=O)N[C@H](C(=O)O)[C@@H](C)O)[C@@H](C)O)[C@@H](C)O)[C@@H](C)O was tested, and the Chemotactic index [2] was 1.09.
In the case of CCC(O[C@@H]1O[C@@H](CO[C@@H]2O[C@@H](CO)[C@@H](O)[C@H](O)[C@@H]2O)[C@@H](O)[C@H](O)[C@@H]1O)c1ccccc1 (stereo not given in full), the Chemotactic index [3] is reported as 0.75.
O=C(O)[C@H](O[C@@H]1O[C@@H](CO[C@@H]2O[C@@H](CO)[C@@H](O)[C@H](O)[C@@H]2O)[C@@H](O)[C@H](O)[C@@H]1O)c1ccccc1 gave a Chemotactic index [1] of 0.71.
Work on N#CC(O[C@@H]1O[C@H](CO[C@@H]2O[C@H](CO)[C@@H](O)[C@H](O)[C@H]2O)[C@@H](O)[C@H](O)[C@H]1O)c1ccccc1 (single isomer, unassigned) yielded a Chemotactic index [4] of 0.63.
For COc1ccc(CO[C@@H]2O[C@@H](CO[C@@H]3O[C@@H](CO)[C@@H](O)[C@H](O)[C@@H]3O)[C@@H](O)[C@H](O)[C@@H]2O)c(OC)c1, the Chemotactic index [4] was 0.84.
Work on C#CC(O[C@@H]1O[C@@H](CO[C@@H]2O[C@@H](CO)[C@@H](O)[C@H](O)[C@@H]2O)[C@@H](O)[C@H](O)[C@@H]1O)c1ccccc1 (stereo not given in full) yielded a Chemotactic index [3] of 0.79.
OC[C@@H]1O[C@@H](OC[C@@H]2O[C@@H](OCc3c4ccccc4cc4ccccc34)[C@@H](O)[C@@H](O)[C@@H]2O)[C@@H](O)[C@@H](O)[C@@H]1O showed a Chemotactic index [5] of 0.94.
Compound C[C@@H](N)C(=O)N[C@@H](CO)C(=O)N[C@H](C(=O)N[C@H](C(=O)N[C@H](C(=O)N[C@@H](CC(N)=O)C(=O)N[C@@H](Cc1ccc(O)cc1)C(=O)N[C@H](C(N)=O)[C@@H](C)O)[C@@H](C)O)[C@@H](C)O)[C@@H](C)O has a Chemotactic index [2] of 0.89.
CC(C)(C)C(O[C@@H]1O[C@@H](CO[C@@H]2O[C@@H](CO)[C@@H](O)[C@H](O)[C@@H]2O)[C@@H](O)[C@H](O)[C@@H]1O)c1ccccc1 (stereo not given in full) gave a Chemotactic index [1] of 0.84.
OC[C@@H]1O[C@@H](OC[C@@H]2O[C@@H](OCc3ccccc3)[C@@H](O)[C@@H](O)[C@@H]2O)[C@@H](O)[C@@H](O)[C@@H]1O gave a Chemotactic index [5] of 0.76.
NC(=O)[C@H](O[C@@H]1O[C@@H](CO[C@@H]2O[C@@H](CO)[C@@H](O)[C@H](O)[C@@H]2O)[C@@H](O)[C@H](O)[C@@H]1O)c1ccccc1 was tested, and the Chemotactic index [6] was 0.84.
For CC(O[C@@H]1O[C@@H](CO[C@@H]2O[C@@H](CO)[C@@H](O)[C@H](O)[C@@H]2O)[C@@H](O)[C@H](O)[C@@H]1O)c1ccccc1 (stereo not given in full), the Chemotactic index [5] was 0.77.
For OC[C@@H]1O[C@@H](OC[C@@H]2O[C@@H](OCc3ccccc3Br)[C@@H](O)[C@@H](O)[C@@H]2O)[C@@H](O)[C@@H](O)[C@@H]1O, the Chemotactic index [4] was 0.94.
Work on COc1ccc(CO[C@@H]2O[C@@H](CO[C@@H]3O[C@@H](CO)[C@@H](O)[C@H](O)[C@@H]3O)[C@@H](O)[C@H](O)[C@@H]2O)cc1 yielded a Chemotactic index [4] of 0.87.
